In patent US20220125765A1, “PHARMACEUTICAL COMBINATIONS COMPRISING MEBENDAZOLE AND A STRONG OR MODERATE CYP1A2 INHIBITOR” (ZEPHAPHARM LTD, priority 2019, published 2022):
Like-named read-outs stand apart in the source and are kept apart here.

Assays:
[1] = test system: SXFS TE671; assay: 2D monolayer CellTiter-Blue viability, soft tissue sarcoma TE671; assay type: cell-based; details: 72 h
Protocol: Seventeen compounds, including mebendazole (Batch no. […] Efficacy of compounds was assessed using CellTiter-Blue® Cell Viability Assay. Anti-tumor activity is expressed as absolute and relative IC50 and IC70 values, calculated by non-linear regression analysis.

[2] = target: T1, BCRP (Homo sapiens, UniProt Q9UNQ0); assay: in vitro
T1 sequence (Q9UNQ0 1-655): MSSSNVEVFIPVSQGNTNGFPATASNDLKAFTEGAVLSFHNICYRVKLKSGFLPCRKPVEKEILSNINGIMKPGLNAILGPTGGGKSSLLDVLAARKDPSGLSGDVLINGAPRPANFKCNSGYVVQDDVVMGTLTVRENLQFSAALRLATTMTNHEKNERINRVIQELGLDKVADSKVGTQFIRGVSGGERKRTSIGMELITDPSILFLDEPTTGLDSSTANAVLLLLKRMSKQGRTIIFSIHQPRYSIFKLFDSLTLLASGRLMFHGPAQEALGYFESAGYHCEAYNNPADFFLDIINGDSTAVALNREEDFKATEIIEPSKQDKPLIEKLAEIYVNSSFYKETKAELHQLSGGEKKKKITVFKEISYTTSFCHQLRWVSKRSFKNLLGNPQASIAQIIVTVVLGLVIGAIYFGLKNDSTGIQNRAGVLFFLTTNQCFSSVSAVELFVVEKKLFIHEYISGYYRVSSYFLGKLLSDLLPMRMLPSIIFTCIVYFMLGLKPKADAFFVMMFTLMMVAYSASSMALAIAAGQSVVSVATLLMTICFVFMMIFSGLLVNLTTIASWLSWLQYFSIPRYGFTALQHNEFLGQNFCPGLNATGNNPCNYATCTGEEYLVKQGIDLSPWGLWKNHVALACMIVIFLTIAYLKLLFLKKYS
From the text: Bidirectional apparent permeability of test compound was quantified by LC-MS/MS and used to determine an efflux ratio.

[3] = test system: OVXF 1023L; assay: 2D monolayer CellTiter-Blue viability, ovarian cancer OVXF 1023L; assay type: cell-based; details: for IC50: Homo sapiens, OVXF1023; for Test/Control (%) at Drug Concentration: 72 h
Protocol: Mebendazole was tested in vitro across a panel of 12 tumor cell lines of ovarian and renal cancer by using a 2D monolayer assay. […] OVXF 899L and RXF 486L are P-gp expressing, multidrug resistant cell lines.
Anti-tumor activity is expressed as absolute and relative IC50/70 values, calculated by 4-parameter non-linear curve fit.

[4] = target: T2, human OATP1B1 transporter (Homo sapiens, UniProt Q9Y6L6); assay: Uptake into OATP1B1 and empty vector transfected HEK293 cells; assay type: in vitro ADME; details: for Uptake rate Mean: 2 min; for Uptake ratio: OATP1B1 vs control
T2 construct: expressed in transfected cells; host or cells: HEK293 (transient transfection)
T2 sequence (Q9Y6L6 1-691): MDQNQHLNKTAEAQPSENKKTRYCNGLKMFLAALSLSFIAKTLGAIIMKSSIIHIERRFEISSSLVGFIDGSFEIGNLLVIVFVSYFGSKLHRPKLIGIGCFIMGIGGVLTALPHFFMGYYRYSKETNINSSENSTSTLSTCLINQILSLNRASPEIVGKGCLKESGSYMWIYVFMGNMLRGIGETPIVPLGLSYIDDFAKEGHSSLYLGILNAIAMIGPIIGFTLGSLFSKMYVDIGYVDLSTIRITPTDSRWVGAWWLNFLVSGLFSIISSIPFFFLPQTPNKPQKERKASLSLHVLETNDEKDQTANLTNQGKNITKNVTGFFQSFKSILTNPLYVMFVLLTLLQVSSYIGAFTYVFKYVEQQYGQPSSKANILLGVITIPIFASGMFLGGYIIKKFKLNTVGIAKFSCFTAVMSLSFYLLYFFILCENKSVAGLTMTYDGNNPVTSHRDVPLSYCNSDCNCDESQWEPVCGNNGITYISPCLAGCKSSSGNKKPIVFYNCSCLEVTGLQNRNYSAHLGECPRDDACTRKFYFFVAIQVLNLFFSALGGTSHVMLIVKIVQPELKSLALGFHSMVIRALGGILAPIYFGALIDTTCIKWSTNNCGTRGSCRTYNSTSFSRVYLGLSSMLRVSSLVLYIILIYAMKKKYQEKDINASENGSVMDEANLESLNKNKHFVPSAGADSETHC
Protocol: Test compound (at 1 and 10 μM) was incubated with both SLC transporter-expressing HEK293 cells and control (empty vector) HEK293 cells for 2 min.

[5] = target: CYP2C9 (Homo sapiens, UniProt P11712); assay: Cytochrome P450 reaction phenotyping, recombinant CYP2C9 (Bactosomes)
Protocol: Incubations were also performed using control Bactosomes™ (no P450 enzymes present) to reveal any non-enzymatic degradation. Control compounds known to be metabolised specifically by each P450 isoform were included. All incubations were performed singularly for each test compound.
Incubations were also performed using control Bactosomes™ (no P450 enzymes present) to reveal any non-enzymatic degradation. Control compounds known to be metabolised specifically by each P450 isoform were included. All incubations were performed singularly for each test compound. […] The reactions were stopped by transferring an aliquot of incubate to quench solvent at the appropriate time points, in a 1:3 ratio. The termination plates were centrifuged at 3,000 rpm for 20 min at 4° C. to precipitate the protein.

Sequence of CYP2C9 (P11712 whole entry, canonical isoform): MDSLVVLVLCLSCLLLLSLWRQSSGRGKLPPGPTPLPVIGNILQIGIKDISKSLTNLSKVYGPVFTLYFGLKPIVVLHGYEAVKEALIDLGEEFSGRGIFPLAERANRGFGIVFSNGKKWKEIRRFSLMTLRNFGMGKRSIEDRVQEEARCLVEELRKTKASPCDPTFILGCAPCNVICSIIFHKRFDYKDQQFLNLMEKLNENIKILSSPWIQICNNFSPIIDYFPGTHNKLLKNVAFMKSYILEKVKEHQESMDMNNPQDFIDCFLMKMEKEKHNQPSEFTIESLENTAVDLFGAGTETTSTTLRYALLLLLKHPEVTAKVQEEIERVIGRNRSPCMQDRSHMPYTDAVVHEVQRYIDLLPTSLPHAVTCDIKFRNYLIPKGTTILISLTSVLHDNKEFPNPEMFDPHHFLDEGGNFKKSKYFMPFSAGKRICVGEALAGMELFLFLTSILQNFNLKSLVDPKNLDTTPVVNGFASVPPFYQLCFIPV

## COC(=O)Nc1nc2ccc(C(=O)c3ccccc3)cc2[nH]1 [Mebendazole, methyl N-(6-benzoyl-1H-benzimidazol-2-yl)carbamate]
[1]; TE671, 1.0E+00 μM
  Test/Control (%) at Drug Concentration: 38%
[1]; TE671, 1.0E+01 μM
  Test/Control (%) at Drug Concentration: 17%
[1]; TE671, 1.0E+02 μM
  Test/Control (%) at Drug Concentration: 5%
[1]; TE671, 1.0E−01 μM
  Test/Control (%) at Drug Concentration: 72%
[1]; TE671, 1.0E−02 μM
  Test/Control (%) at Drug Concentration: 87%
[1]; TE671, 3.2E+00 μM
  Test/Control (%) at Drug Concentration: 32%
[1]; TE671, 3.2E+01 μM
  Test/Control (%) at Drug Concentration: 13%
[1]; TE671, 3.2E−01 μM
  Test/Control (%) at Drug Concentration: 45%
[1]; TE671, 3.2E−02 μM
  Test/Control (%) at Drug Concentration: 85%
[1]; TE671, 3.2E−03 μM
  Test/Control (%) at Drug Concentration: 80%
[2]; Caco-2
  efflux ratio at 120 min, 10 μM: 1.23
[2]; Caco-2, Papp Mean
  Papp A→B at 120 min, 10 μM: 23.5 ×10⁻⁶ cm/s
  Papp B→A at 120 min, 10 μM: 29 ×10⁻⁶ cm/s
[2]; Caco-2, Papp Rep 1
  Papp A→B at 120 min, 10 μM: 19.7 ×10⁻⁶ cm/s
  Papp B→A at 120 min, 10 μM: 28.2 ×10⁻⁶ cm/s
[2]; Caco-2, Papp Rep 2
  Papp A→B at 120 min, 10 μM: 27.4 ×10⁻⁶ cm/s
  Papp B→A at 120 min, 10 μM: 29.8 ×10⁻⁶ cm/s
[2]; Caco-2, calculated mean % recovery values (range)
  recovery at 120 min, 10 µM: 52 to 75.7%
[3]; OVXF 1023, 72 h, read-out: Abs. IC50
  IC50: > 3.2 µM
[3]; OVXF 1023, 72 h, read-out: Rel. IC50
  IC50: > 3.2 µM
[3]; OVXF 1023, 1.0E+00 μM
  Test/Control (%) at Drug Concentration: 69%
[3]; OVXF 1023, 1.0E−01 μM
  Test/Control (%) at Drug Concentration: 94%
[3]; OVXF 1023, 1.0E−02 μM
  Test/Control (%) at Drug Concentration: 101%
[3]; OVXF 1023, 1.0E−03 μM
  Test/Control (%) at Drug Concentration: 104%
[3]; OVXF 1023, 1.0E−04 μM
  Test/Control (%) at Drug Concentration: 107%
[3]; OVXF 1023, 3.2E+00 μM
  Test/Control (%) at Drug Concentration: 62%
[3]; OVXF 1023, 3.2E−01 μM
  Test/Control (%) at Drug Concentration: 82%
[3]; OVXF 1023, 3.2E−02 μM
  Test/Control (%) at Drug Concentration: 98%
[3]; OVXF 1023, 3.2E−03 μM
  Test/Control (%) at Drug Concentration: 101%
[3]; OVXF 1023, 3.2E−04 μM
  Test/Control (%) at Drug Concentration: 103%
[3]; OVXF 1023, 72 h
  Abs. IC70: >3.200 µM
  Rel. IC70: >3.200 µM
[3]; OVXF 1023, 72 h, curve fit
  Bot. (%): 2%
  Top (%): 105%
[4]; 1 μM, OATP1B1 HEK293 cells
  Uptake rate Mean: 42.5 pmol/mg
[4]; 1 μM
  Uptake ratio: 0.9
[4]; 1 μM, control (empty vector) HEK293 cells
  Uptake rate Mean: 49.0 pmol/mg
[4]; 10 μM, OATP1B1 HEK293 cells
  Uptake rate Mean: 426 pmol/mg
[4]; 10 μM
  Uptake ratio: 0.9
[4]; 10 μM, control (empty vector) HEK293 cells
  Uptake rate Mean: 461 pmol/mg
[4]; 1 and 10 μM
  substrate of the human OATP1B1 transporter: not a substrate
[5]; CYP2C9, 5 μM, 0 min
  Compound Remaining (% of 0 min): 100 % of 0 min
[5]; CYP2C9, 5 μM, 5 min
  Compound Remaining (% of 0 min): 108 % of 0 min
[5]; CYP2C9, 5 μM, 15 min
  Compound Remaining (% of 0 min): 108 % of 0 min
[5]; CYP2C9, 5 μM, 30 min
  Compound Remaining (% of 0 min): 109 % of 0 min
[5]; CYP2C9, 5 μM, 45 min
  Compound Remaining (% of 0 min): 105 % of 0 min
[5]; CYP2C9, 5 μM, time not stated
  % compound remaining: > 87.5%
[5]; CYP2C9, substrate 5 μM
  t1/2: >2.25 h
[5]; human, recombinant CYP2C9 (Bactosomes), pH 7.4
  half-life at 5 μM: > 2.25 h
